Assay type in all cases: functional
The subject of test [1] is Heliothis virescens. Briefly: Antifeedant activity in Heliothis virescens at 24.8 ug/cm'2 after 2 days relative to control.
Test [2] relates to Heliothis virescens. Briefly: Antifeedant activity in Heliothis virescens at 7.7 ug/cm'2 after 4 days relative to control.
Test [3] deals with Heliothis virescens. Put plainly: Antifeedant activity in Heliothis virescens at 7.7 ug/cm'2 after 6 days relative to control.
Test [4] has as its system Heliothis virescens. Put plainly: Antifeedant activity in Heliothis virescens at 247.5 ug/cm'2 after 2 days relative to control.
The test system of test [5] is Heliothis virescens. Put plainly: Antifeedant activity in Heliothis virescens at 0.25 ug/cm'2 relative to dithane.
Test [6] has as its system Heliothis virescens. Put plainly: Antifeedant activity in Heliothis virescens at 247.5 ug/cm'2 after 4 days relative to control.
Test [7] has as its system Heliothis virescens. Briefly: Antifeedant activity in Heliothis virescens at 76.7 ug/cm'2 after 6 days relative to control.
In test [8] the test system is Heliothis virescens. Briefly: Antifeedant activity in Heliothis virescens at 7.7 ug/cm'2 after 2 days relative to control.
In test [9] the test system is Heliothis virescens. Put plainly: Antifeedant activity in Heliothis virescens at 76.7 ug/cm'2 after 2 days relative to control.
In test [10] the test system is Heliothis virescens. Briefly: Antifeedant activity in Heliothis virescens at 24.8 ug/cm'2 after 4 days relative to control.
Test [11] concerns Heliothis virescens. Put plainly: Antifeedant activity in Heliothis virescens at 24.8 ug/cm'2 after 6 days relative to control.
The test system of test [12] is Heliothis virescens. Briefly: Antifeedant activity in Heliothis virescens at 76.7 ug/cm'2 after 4 days relative to control.
The subject of test [13] is Heliothis virescens. Put plainly: Antifeedant activity in Heliothis virescens at 247.5 ug/cm'2 after 6 days relative to control.

Structures are written as SMILES.

As to `Cc1c(O)c(C=O)c(O)c(C(=O)CCc2ccccc2)c1O`, the Activity is on record as 90% in the test with Heliothis virescens [1]; 60% in the test with Heliothis virescens [2]; 30% in the test on Heliothis virescens [3]; 90% in the test on Heliothis virescens [4]; 90% with Heliothis virescens [5]; 60% in the test on Heliothis virescens [6]. Further, the Activity was found to be 60% in the test with Heliothis virescens [7]; 60% with Heliothis virescens [8]; 90% in the test on Heliothis virescens [9]; 60% with Heliothis virescens [10]; 30% in the test with Heliothis virescens [11]; 60% in the test with Heliothis virescens [12]. In the test with Heliothis virescens [13], this compound registered an Activity of 60%.
